Reference: ChEMBL document CHEMBL5365456, “Isolation and biological activity of natural chalcones based on antibacterial mechanism classification” (Bioorg Med Chem, 2023)
Values after ≈ are worked out from the molar mass of the structure shown.

Test system: Mycobacterium tuberculosis
Test: Antitubercular activity against multi-drug-resistant Mycobacterium tuberculosis M22 assessed as bacterial growth inhibition measured for 9 days
Format: functional
Settings: M22, 216 h, time 9 day

O=C(CCc1ccc(O)cc1)c1c(O)cc(O)cc1O [PHLORETIN]
MIC90: 182 µM (≈ 49.9 µg/mL)
